Measurements taken from patent publication US9115123B2, “Preventive or therapeutic agent for pain associated with herpes zoster in acute phase” (Kyushu University, priority 2010, dated 2015).

Tests used:
[1] = tested on: HSV-1 infected mice (zoster-associated pain in acute phase); assay: Mouse model of herpes zoster, pain-associated reaction to von Frey filament (0.16 g) after intrathecal administration; type: in vivo; conditions: five to seven days after infection
From the text: Epidermis of the right hind leg (lower part of knee joint) of shaven female C57BL/6J mice was chopped with a bundle of ten 26G injection needles, and coated with a solution (1×10^6 pfu/site) of herpes simplex virus Type I (HSV-1), which as well as varicella zoster virus, belongs to Herpesviridae (family) (Takasaki I, et al., Anesthesiology, 2002, 96:1168-1174). Seven days after infection, the spinal cord was collected after perfusion of 4% neutral buffered paraformaldehyde, replaced with 30% sucrose solution, embedded with OCT compound to prepare frozen slices. […]
The effect of P2X4 receptor antagonism on zoster-associated pain in acute phase was studied using the mouse model of herpes zoster described in Example 2. […] Threshold of the pain was measured before administration of the drug (AM 9:30 to 10:00 and PM 5:30 to 6:00). Pain-associated reaction on the HSV-1 infection side hindpaw was measured using von Frey Filament (0.16 g). […] The pain reaction was evaluated as follows: • Score 0: No reaction • Score 1: Lifting of hind leg • Score 2: Sharp evasion reaction and flinching of hind leg
Each individual pain score was calculated by averaging six scores. The allodynia score (%) was calculated as the average score of each group by counting the maximum reaction score 2 as 100%.
Threshold of the pain was measured before administration of the drugs (AM 9:30 to 10:00 and PM 5:30 to 6:00).

[2] = tested on: HSV-1 infected mice (zoster-associated pain); assay: Mouse model of herpes zoster, pain-associated reaction to paintbrush stimulus after oral administration; type: in vivo
From the text: Epidermis of the right hind leg (lower part of knee joint) of shaven female C57BL/6J mice was chopped with a bundle of ten 26G injection needles, and coated with a solution (1×10^6 pfu/site) of herpes simplex virus Type I (HSV-1), which as well as varicella zoster virus, belongs to Herpesviridae (family) (Takasaki I, et al., Anesthesiology, 2002, 96:1168-1174). Seven days after infection, the spinal cord was collected after perfusion of 4% neutral buffered paraformaldehyde, replaced with 30% sucrose solution, embedded with OCT compound to prepare frozen slices. A specimen in cross section was prepared at the fifth lumbar level of the spinal cord, and was subjected to a fluorescent double immunostaining according to Alexa Fluor 488, 546 using OX42 antibody, which has widely been used as a microglia marker, and P2X4 receptor antibody. […] The pain-associated reaction of the hindpaw on the HSV-1 infection side was measured and evaluated referring to the response to a contact stimulant using a paint-brush. The mouse was placed into a cage for measurement, and accustomed to the environment for 1 hour or more. The plantar surface of the right hindpaw was vertically stroked with the paintbrush along the direction from toe to heal, and this was repeated six times at intervals of several seconds. The pain reaction was evaluated as follows: • Score 0: No reaction • Score 1: Lifting of hind leg • Score 2: Sharp evasion reaction and flinching of hind leg Each individual pain score was calculated by averaging six scores.

P2X4 receptor = target: T1, P2X4 receptor (Homo sapiens, UniProt Q99571); conditions: reported in cited WO documents and Nagata K, Imai T et al., Molecular Pain, 2009, 5:20; cited from earlier work
T1 sequence (Q99571 1-388): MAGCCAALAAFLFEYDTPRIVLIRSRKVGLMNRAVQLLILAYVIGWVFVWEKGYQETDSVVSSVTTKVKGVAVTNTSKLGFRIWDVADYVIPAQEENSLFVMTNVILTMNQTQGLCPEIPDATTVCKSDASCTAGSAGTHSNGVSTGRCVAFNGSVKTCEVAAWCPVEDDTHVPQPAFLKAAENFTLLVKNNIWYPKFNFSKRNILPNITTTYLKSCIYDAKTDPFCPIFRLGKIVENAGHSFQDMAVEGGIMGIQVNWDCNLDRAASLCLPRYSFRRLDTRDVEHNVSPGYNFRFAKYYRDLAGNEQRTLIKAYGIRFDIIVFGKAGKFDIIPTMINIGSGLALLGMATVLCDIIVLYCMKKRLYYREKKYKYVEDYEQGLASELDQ

| Structure (SMILES) | threshold score of the pain (von Frey, allodynia score) ([1]; 10 pmol/mouse intrathecal twice a day) | threshold score of the pain (von Frey, allodynia score) ([1]; 30 pmol/mouse intrathecal twice a day) | threshold of the pain (paintbrush pain score) ([2]; seven days after infection (acute phase), 30 mg/kg oral, from 1 hour to 4 hours after administration) | threshold of the pain (paintbrush pain score) ([2]; seven days after infection (acute phase), 50 mg/kg oral, from 30 minutes to 8 hours after administration) | threshold of the pain (paintbrush pain score) ([2]; thirty days after infection (postherpetic neuralgia), 30 mg/kg oral) | threshold of the pain (paintbrush pain score) ([2]; thirty days after infection (postherpetic neuralgia), 50 mg/kg oral, 30 minutes, 1 hour and 4 hours after administration) | P2X4 receptor antagonism / inhibition (in words) (P2X4 receptor) |
| --- | --- | --- | --- | --- | --- | --- | --- |
| O=C1CC(=O)N(c2cccc(-c3noc(=S)[nH]3)c2)c2ccc3ccccc3c2N1.[Na] [Compound A, 5-[3-(5-thioxo-4H-[1,2,4]oxadiazol-3-yl)phenyl]-1H-naphtho[1,2-b][1,4]diazepine-2,4(3H,5H)-dione sodium salt] | significantly suppressed | significantly suppressed | – | – | – | – | – |
| Fc1ccc([C@@H]2CCNC[C@H]2COc2ccc3c(c2)OCO3)cc1 [Paroxetine] | – | – | significantly improved | continuously improved | did not show any significant improvement | significant improvement was observed | functions as an inhibitor of P2X4 receptor |
